Consider one molecule from PMC5131319, “Occurrence, temporal trends, and half-lives of perfluoroalkyl acids (PFAAs) in occupational workers in China” (Scientific Reports, 2016).

A short description of data set [1]: Half-life estimated by daily clearance rates (first-order model, k = Cltotal/Vd). The class given is in vivo, human. The following applies: for half-life: human, serum and urine, other: occupational exposure. The text has this: Olsen et al.[21] found linear relationship between the logarithm of serum PFAAs concentration and time, and a first order model was adopted to estimate the half-lives of PFAAs. The elimination of PFAAs in humans was also described with the following equation: […]
If we set C(t) as 1/2C0, then the half-life
where k is the elimination rate constant. We calculated k using two approaches in the present study. In the first approach, k is defined as Cltotal/Vd, where Vd stands for the volume of distribution of PFAAs in the human body. Cltotal represents the total daily PFAAs clearance in the human body; for men and women older than 50, it refers to renal clearance, while for young women, it is defined as the sum of menstrual clearance and renal clearance. To keep consistency with other studies, Vd of PFOS and PFHxS were set at 230 mL kg^−1, and Vd of PFOA was set at 170 mL kg^−1 in this study. In the second approach, k is defined as the average annual decline rates of PFAAs in workers who participated in this study.
We used a first order model to estimate the half-lives of PFAAs in workers (Eq (2)). k was defined as […], where Cltotal referred to renal clearance for men and women older than 50 and to the sum of menstrual clearance and renal clearance for young women. According to Eq (2), the half-lives of PFHxS, PFOA, and PFOS for the occupational workers tested ranged from 0.51–3799 years, 0.44–3663 years, and 0.76–30475 years, with GM and median values of 14.7 and 11.7, 4.1 and 4.0, 32.6 and 21.6 years, respectively (Table 2). […] The GM values of the half-lives of PFHxS, PFOA, and PFOS for men here were 19.9, 4.7, and 60.9 years, respectively, while those for women were 7.5, 3.1, and 8.0 years, respectively. The half-lives estimated by the limited clearance route information could be considered as the upper limits for PFAAs. It seemed likely that the unrealistically long half-life estimates derived from the urinary data were actually evidence of the contribution of fecal elimination to the clearance of these chemicals. The extremely long half-lives of PFAAs, such as 3799 years for PFHxS, 3663 years for PFOA, and 30475 years for PFOS, were caused by the application of LOD/2 instead of ND in workers’ urine samples. The geometric mean or median value of the PFAAs half-lives can better reflect the actual situation.

A short description of data set [2]: PFAA concentration in morning urine of occupational workers (HPLC-ESI/MS/MS). It is filed as in vivo, human. The protocol:
The selected fluorochemical plant (Henxin Chemical Plant) in this study is one of the largest producers of PFOS-related chemicals in China and is located in Yingcheng, Hubei province. Perfluoroalkyl sulfonic acids (PFSAs) and perfluorotertiary amines are synthesized through an electro-chemical fluorination (ECF) process. We collected paired serum and urine samples from the occupational workers in the plant for five consecutive years, and the sampling activities were carried out in Nov. 2008, Nov. 2009, Nov. 2010, Dec. 2011, and Dec 2012, respectively. The Medical Research Ethics Committee, School of Medicine, Jianghan University, approved the ethics of this study, and all methods were performed in accordance with the relevant guidelines and regulations, moreover, all volunteers gave written informed consent. Demographic information of the donors, including gender, age, length of service, and work assignment, was collected with a questionnaire (Table S1). The sampled population included a total of 302 occupational workers, of which there were 89 female and 213 male participants. In total, 302 serum and 274 urine samples were collected.
The participants were told not to eat breakfast before the sampling, and morning urine samples and blood samples were collected. Serum was separated from the blood by centrifugation at 1100 × g at 4 °C for 10 min and then placed on ice. Serum samples were then transferred to our laboratory on the same day and stored in polypropylene containers at −20 °C until analysis.
All pre-treatment methods and instrument analysis of PFAAs in serum and urine samples are based on previous studies with minor modifications (see Supplementary Information)[3][31]. Based on the PFAA profiles in environmental matrices around the same plant in our previous study, only 3 main PFAAs, PFHxS, PFOA, and PFOS, were analyzed in the obtained serum and urine samples. Instrumental analysis of the PFAAs was performed by a HPLC-ESI/MS/MS system (HPLC: Waters 2695, MS: Waters Quattro Premier XE). The limits of detection (LODs) of PFHxS, PFOA, and PFOS were 0.020, 0.063, and 0.018 ng mL^−1 for serum samples and 0.008, 0.025, and 0.007 ng mL^−1 for urine samples, respectively. A procedural blank was performed for every batch of seven samples, and all of the blank levels were below the LODs. […] Details of quality assurance and quality control of the chemical analysis can be found in the Supplementary Information.
Urine samples were pretreated by solid phase extraction. Briefly, 1 mL of urine spiked with 5 ng of internal standard was added to a 15 - mL PP tube and diluted with 13 mL water. The solid phase extraction procedure was then performed following the previously described serum extraction procedure.

The mark [3] stands for this setting: Female workers, number 71, menstrual clearance added to renal clearance.
[4] abbreviates: Fabric finishing agent department, N 8.

Where two headings read alike, the source gives them in different places.

As usually defined, the half-life is the time in which the quantity being followed falls by half. Take `O=S(=O)(O)C(F)(F)C(F)(F)C(F)(F)C(F)(F)C(F)(F)C(F)(F)F` [PFHxS, perfluorohexane sulfonate]: the “Half-life estimated through daily elimination, Max” value in data set [1] (setting [3]) is recorded as 15.1 years. The “Half-life estimated through daily elimination, Min” value in data set [1] (setting [3]) is listed as 2.8 years; in data set [1] (Male workers, number 136, renal clearance) it was 0.51 years; in data set [1] (Total workers, number 207), 0.51 years. Moreover, the half-life in data set [1] (both sexes, Total workers, number 207, read-out: Half-life estimated through daily elimination, GM (converted)) is 5370 days; in data set [1] (both sexes, Total workers, number 207, read-out: Half-life estimated through daily elimination, Median (converted)), 4270 days; in data set [1] (female, Female workers, number 71, menstrual clearance added to renal clearance, read-out: Half-life estimated through daily elimination, GM (converted)) it was 2740 days; in data set [1] (female, Female workers, number 71, menstrual clearance added to renal clearance, read-out: Half-life estimated through daily elimination, Median (converted)) it was 2780 days; in data set [1] (male, Male workers, number 136, renal clearance, read-out: Half-life estimated through daily elimination, Median (converted)) it was 5300 days. Moreover, the “Urine concentration, mean” value worked out at 3.9 ng/mL in data set [2] (All workers, N 274); 2.3 ng/mL in data set [2] (Electrolytic department, N 67); 3.5 ng/mL in data set [2] (setting [4]); 0.93 ng/mL in data set [2] (Management office, N 76); 1.9 ng/mL in data set [2] (Research building, N 25); 7.1 ng/mL in data set [2] (Sulfonation department, N 98). The “Urine concentration, median” value in data set [2] (All workers, N 274) came out at 1.7 ng/mL; in data set [2] (Electrolytic department, N 67), 1.3 ng/mL; in data set [2] (setting [4]), 2.4 ng/mL; in data set [2] (Management office, N 76), 0.37 ng/mL; in data set [2] (Research building, N 25), 0.97 ng/mL; in data set [2] (Sulfonation department, N 98), 3.7 ng/mL. Besides, the “Urine concentration, range” value in data set [2] (setting [4]) is 0.79 to 7.1 ng/mL.
